# “Also recorded” adds a separate entry of the source.
# Legend:
# [1] = tested on: THP-1 derived macrophages; test: LPS stimulated THP-1 derived macrophages: IL-1β ELISA of supernatant; assay type: cell-based, human; conditions: 100 nM, LPS 24 hrs
# Procedure: THP-1 monocytes were differentiated into macrophages via treatment with 50 ng/ml phorbol 12-myristate 13-acetate (PMA) in THP-1 growth media (RPMI-1640, 100 μg/ml Primocin, 10% FBS, 0.05 mM β-mercaptoethanol) for 48 hours. Macrophages were then washed twice to remove PMA containing media before a 1-hour pretreatment with 1 μM BI1347 or 100 nM MSC2530818. Inflammatory stimulation was then initiated via the addition of lug/ml lipopolysaccharide (LPS) for 24 hours in the presence of 1 μM BI1347 or 100 nM MSC2530818. Gene expression analysis was subsequently carried out as previously outlined. For MSC2530818 treated/LPS stimulated cells, media supernatant was used for IL-1β cytokine analysis quantification via ELISA (PeproTech, ABTS Human IL-1β development ELISA) as per manufacturer instructions.
# [2] = tested on: zebrafish embryo endochondral jaw bone; test: Zebrafish jaw analysis of hypertrophic zones; assay type: in vivo, zebrafish (Danio rerio); conditions: 50 nM or 100 nM, 24 hpf to 5 dpf, vs DMSO
# Procedure: Several bones during zebrafish (Danio rerio) craniofacial development exist via endochondral ossification, thus the developing zebrafish embryo is a useful in vivo model of chondrocyte hypertrophy (Dietrich et al. (2021) “Skeletal Biology and Disease Modeling in Zebrafish”. J Bone Miner Res, 36:436-458. https://doi.org/10.1002/jbmr.4256). Embryos at 24 hpf were cultured in the E3 water ([…], 0.17 mM KCl, 0.33 mM CaCl2, 0.33 mM MgSO4, and 0.1% Methylene Blue) in the presence of 50 nM or 100 nM MSC2530818 or DMSO control up until 5 dpf, with E3 water refreshed every 2 days. At 5 dpf embryos were fixed in 4% PFA overnight at 4° C. before washing in 70% EtOH for 10 mins followed by 50% EtOH for a further 10 mins. Specimens were then incubated in alcian blue stain (0.1% Alcian blue, 70% EtOH, 30% Glacial acetic acid) overnight with gentle agitation before 30 min washes in 100, 80, 70% EtOH and 0.1% PBST. Specimens were digested for 1 hour in enzyme solution (10 mg/ml trypsin in 30% saturated sodium tetraborate) followed by a 1-hour incubation in bleaching solution (3% hydrogen peroxide, 1% potassium hydroxide). Specimens were washed in 0.1% PBST and stored in 70% glycerol at 4° C. until imaging. Jaw sections were dissected and the number of enlarged cells within the entopterygoid/ceratohyal region were counted.
# [3] = tested on: STR/Ort mouse (spontaneous osteoarthritis); test: STR/Ort mouse pilot study: cartilage manifestations and gene expression markers; assay type: in vivo; conditions: 5 mg/kg oral gavage intermittently, 2 weeks
# Procedure: The STR/Ort mouse is a spontaneous mouse model of osteoarthritis which follows a similar trajectory as primary osteoarthritis disease development as humans and companion animals. […] An initial pilot study consisting of 2 male STR/Ort mice aged 18 weeks per group was carried out. Mice were dosed 5 mg/kg […] (N=2) or DMSO (N=2) in 60% PEG400 via oral gavage 3 times a week intermittently for 2 weeks. On day 14, mice were sacrificed, and articular cartilage was harvested from the knee joint using a micro rongeur. Tissue was homogenised in Qiazol using 2.4 mm beads in pre-chilled Tissue Lyser II racks (Qiagen) at 30 Hz for 5 minutes in total with intervals for samples to be chilled on ice every 60 seconds to prevent sample heating. Homogenised samples were directly processed for RNA extraction using the Direct-Zol microprep kit (Zymo) and RNA was processed for gene expression analysis via qPCR as previous.
# [4] = tested on: ATDC5 micromass; test: ATDC5 micromass treated with CDK8i: qPCR gene expression and morphology; assay type: cell-based, mouse; conditions: 1 μM
# Procedure: ATDC5 and primary equine chondrocytes were cultured in micromasses and treated with a CDK8i to determine effects on gene expression during chondrogenic differentiation.
# In more detail, for ATDC5 cells, 2.7×10^5 cells were seeded in a 10 μl droplet onto a 24-well plate and cultured in differentiation media supplemented with CDK8i for 7 days before switching to mineralisation media supplemented with CDK8i for a further 7 days to induce hypertrophic differentiation as previous. The CDK8i was either 1 μM BI1347 or 100 nM MSC2530818.
# On days 7 and 14 DMSO control and BI1347/MSC2530818 treated ATDC5 micromasses were lysed in triplicate and RNA extracted using Reliaprep RNA miniprep system (Promega) before cDNA synthesis using High-capacity reverse transcriptase kit (Applied BioScience). Quantitative PCR (qPCR) analysis was carried out using 10 ng cDNA in iTaq mastermix (BioRad) according to manufacturer's instructions. Primer sequences for qPCR reactions are shown in Table 1. ΔCt values of genes expressed were normalised to reference housekeeper genes and subsequently used to generate relative expression. Significance was observed by conducting unpaired T-test with Welch correction.
# [5] = tested on: ATDC5 micromass; test: IL-1β induced extracellular matrix degradation of ATDC5 micromass: gene expression; assay type: cell-based, mouse
# Procedure: To mimic this route of cartilage degradation in vitro, 10 μl ATDC5 micromasses were seeded and differentiated in the presence of 1 μM BI1347 or DMSO for 11 days to allow for sufficient ECM deposition. Cells were then serum starved for 24 hours in differentiation media containing 1% FBS before treatment with 1 μM BI1347 or DMSO for 1 hour and subsequent induction of ECM degradation by co-treatment with 10 ng/ml IL-1β (PeproTech) for 48 hours. Compound only conditions were used as a negative control and additional micromasses were differentiated in the presence of 1 μM BI1347 for the entire culture period to observe whether pre-treatment of ATDC5 with BI1347 alters cellular responses to IL-1B. On day 14 micromasses were stained with alcian blue and leached as previous and RNA extracted for gene expression analysis as above.
# [6] = tested on: MC3T3 cells; test: MC3T3 cell viability assay (resazurin); assay type: cell-based; conditions: 1 μM, day 7 and 14
# Procedure: To determine potential toxicity of CDK8i on MC3T3 cells, a cell viability assay was carried out on day 7 and 14 of MC3T3 cells treated with 1 μM BI1347. Briefly, culture media was replaced with differentiation media containing 0.2 mM resazurin dye and incubated for 2 hours at 37° C. before measurement at 570 nm normalized to 600 nm.
# [7] = 1 μM days 12-14, with 10 ng/ml IL-1β
# [8] = 1 μM throughout differentiation, 10 ng/ml IL-1β days 12-14
SMILES,"IL1β production / secretion into culture media, reduction [1] [fold]",size of the hypertrophic region and number of enlarged/hypertrophic cells [2],"gene expression of cartilage anabolic biomarkers ([3]; N=2, not powered for significance)","articular cartilage thickness (appearance post-dissection) ([3]; N=2, vs DMSO)","infiltration of blood vessels in articular cartilage ([3]; male aged 18 weeks, N=2, vs DMSO)","micromass morphology ([4]; 14 days, vs DMSO)","COL2A1 expression, increase vs DMSO ([4]; day 7) [fold]",Mediator complex gene expression vs DMSO ([4]; day 7),"ACAN expression, increase vs DMSO ([4]; day 7 (N.S)) [fold]","ACAN expression, increase vs DMSO ([4]; day 14) [fold]","COL10A1 expression, decrease vs DMSO ([4]; day 14) [fold]","ACAN expression, increase vs DMSO [5, 7] [fold]","COL2A1 expression, increase vs DMSO [5, 7] [fold]","COL2A1 expression, increase vs DMSO ([5]; 1 μM days 12-14, without IL-1β) [fold]","ACAN expression, increase vs DMSO ([5]; 1 μM days 12-14, without IL-1β (N.S)) [fold]","ACAN expression, increase vs DMSO [5, 8] [fold]","COL2A1 expression, increase vs DMSO [5, 8] [fold]",cell viability (resazurin) vs DMSO [6]
Cc1n[nH]c2ncc(C(=O)N3CCC[C@H]3c3ccc(Cl)cc3)cc12 [MSC2530818],1.5,dose dependent reduction,increased; also recorded: increase in expression,appears thicker,absent; also recorded: not present,–,–,–,–,–,–,–,–,–,–,–,–,–
CN(C)C(=O)Cn1cc(-c2ccc(-c3cncc4ccccc34)cc2)cn1 [BI1347],–,–,–,–,–,"visible increase in extracellular matrix production; also recorded: visibly larger, more rounded and resembled the appearance of healthy cartilage",4.7,robustly downregulated; also recorded: overall reduction,6,6,5.3,3,1.5,1.7,1.2,20,3,no difference in absorbance; also recorded: no toxicity observed

# Reference: patent US20250312320A1, “METHOD AND TREATMENT FOR OSTEOARTHRITIS AND DISEASES OF CHONDROCYTE HYPERTROPHY” (The Royal Veterinary College, priority 2022, published 2025)
